The nature of series [1]: Microsomal stability, human liver microsomes (predicted hepatic clearance). As to conditions: predicted from in vitro microsomal stability data.
The target in series [2] is GLP-1R (Homo sapiens, UniProt P43220). The series is described as follows: GLP-1R activation: cAMP increase in CHO cells stably expressing GLP-1R. It is filed as cell-based.
[3] abbreviates: cAMP increase, CHO cells stably expressing GLP-1R, 10 point dose response, 30 minutes incubation, read-out: EC50.

Where two headings read alike, the source gives them in different places.

Chain of GLP-1R (P43220 24-463): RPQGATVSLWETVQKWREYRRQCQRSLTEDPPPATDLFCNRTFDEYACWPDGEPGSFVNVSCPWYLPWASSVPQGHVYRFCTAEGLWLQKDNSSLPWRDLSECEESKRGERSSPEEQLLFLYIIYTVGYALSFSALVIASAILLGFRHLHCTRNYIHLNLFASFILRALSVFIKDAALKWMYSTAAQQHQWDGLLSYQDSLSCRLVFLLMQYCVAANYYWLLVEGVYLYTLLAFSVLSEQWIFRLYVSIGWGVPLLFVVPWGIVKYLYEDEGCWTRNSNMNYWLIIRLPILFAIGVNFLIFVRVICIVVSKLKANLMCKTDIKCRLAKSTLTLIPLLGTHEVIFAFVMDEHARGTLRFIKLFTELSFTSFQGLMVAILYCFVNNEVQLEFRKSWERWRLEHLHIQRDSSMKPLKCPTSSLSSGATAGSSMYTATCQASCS

The EC50 is the concentration needed to bring the measured effect to its halfway point. For `COCCn1c(Cc2ccc(-c3cccc(OCc4ccc(C#N)cc4F)n3)c(Br)c2)nc2ccc(C(=O)O)cc21` [Example 261, 2-(3-bromo-4-(6-((4-cyano-2-fluorobenzyl)oxy)pyridin-2-yl)benzyl)-1-(2-methoxyethyl)-1H-benzo[d]imidazole-6-carboxylic acid], the “Predicted Hepatic Clearance (Pred. Cl.)” value in series [1] was 8 mL/min/kg. For the same compound, in series [2] (setting [3]), the EC50 came out at 184 nM.

Take `N#Cc1ccc(COc2cccc(-c3ccc(Cc4nc5c(F)cc(C(=O)O)cc5n4C[C@@H]4CCO4)cc3)n2)c(F)c1` [Example 633]: the “Predicted Hepatic Clearance (Pred. Cl.)” value in series [1] was 4.83 mL/min/kg. The EC50 in series [2] (setting [3]) was found to be 0.17 nM.

Take `N#Cc1ccc(COc2cccc(-c3cc(F)c(Cc4nc5ccc(C(=O)O)cc5n4Cc4cnns4)cc3F)n2)c(F)c1` [Example 569, 1-((1,2,3-thiadiazol-5-yl)methyl)-2-(4-(6-((4-cyano-2-fluorobenzyl)oxy)pyridin-2-yl)-2,5-difluorobenzyl)-1H-benzo[d]imidazole-6-carboxylic acid]: the “Predicted Hepatic Clearance (Pred. Cl.)” value in series [1] was 17 mL/min/kg. Besides, the EC50 in series [2] (setting [3]) was found to be 10.4 nM.

`COCCn1c(Cc2c(F)cc(-c3csnc3OCc3ccc(Cl)cc3F)cc2F)nc2ccc(C(=O)O)cc21` [Example 72, 2-(4-(3-((4-chloro-2-fluorobenzyl)oxy)isothiazol-4-yl)-2,6-difluorobenzyl)-1-(2-methoxyethyl)-1H-benzo[d]imidazole-6-carboxylic acid]: the “Predicted Hepatic Clearance (Pred. Cl.)” value in series [1] is 12.3 mL/min/kg. Also, the concentration for a half-maximal effect (EC50) in series [2] (setting [3]) is 23.8 nM.

Turning to `COCCn1c(Cc2cc(F)c(-c3cccc(OCc4ccc(-c5ccccn5)cc4F)n3)cc2F)nc2ccc(C(=O)O)cc21` [Example 910], the “Predicted Hepatic Clearance (Pred. Cl.)” value in series [1] is 2.83 mL/min/kg. The EC50 in series [2] (setting [3]) is 33.4 nM.

With `N#Cc1ccc(COc2ccc(F)c(-c3cc(F)c(Cc4nc5c(F)cc(C(=O)O)cc5n4CC4(CF)CC4)cc3F)n2)c(F)c1` [Example 760], the “Predicted Hepatic Clearance (Pred. Cl.)” value in series [1] was 6.5 mL/min/kg. In addition, the EC50 in series [2] (setting [3]) came to 0.26 nM.

In the case of `N#Cc1ccc(COc2cccc(-c3ccc(Cc4nc5ccc(C(=O)O)cc5n4CCCO)c(F)c3)n2)c(F)c1` [Example 392, 2-(4-(6-((4-cyano-2-fluorobenzyl)oxy)pyridin-2-yl)-2-fluorobenzyl)-1-(3-hydroxypropyl)-1H-benzo[d]imidazole-6-carboxylic acid], in series [1], the “Predicted Hepatic Clearance (Pred. Cl.)” value is 3.17 mL/min/kg. In addition, in series [2] (setting [3]), the EC50 came out at 14.5 nM.

Turning to `COC[C@H](Cn1c(Cc2cc(F)c(-c3cccc(OCc4ccc(C#N)cc4F)n3)cc2F)nc2ccc(C(=O)O)cc21)OC` [Example 620], the “Predicted Hepatic Clearance (Pred. Cl.)” value in series [1] is 6.67 mL/min/kg. In series [2] (EC50 (nM)), the midpoint of the response, the EC50, lay at 7.5 nM.

`N#CCC1(Cn2c(Cn3ccc(-c4cccc(OCc5ccc(C#N)cc5F)n4)cc3=O)nc3ccc(C(=O)O)cc32)CC1` [Example 422, 2-((6-((4-cyano-2-fluorobenzyl)oxy)-2′-oxo-[2,4′-bipyridin]-1′(2′H)-yl)methyl)-1-((1-(cyanomethyl)cyclopropyl)methyl)-1H-benzo[d]imidazole-6-carboxylic acid]: the “Predicted Hepatic Clearance (Pred. Cl.)” value in series [1] is 2.67 mL/min/kg. Further, the EC50 in series [2] (setting [3]) stood at 0.87 nM.

For the compound `COCCn1c(Cc2ccc(-c3cccc(OCc4ccc(C#N)cc4F)n3)cc2F)nc2cc(F)c(C(=O)O)cc21` [Example 207, 2-(4-(6-((4-cyano-2-fluorobenzyl)oxy)pyridin-2-yl)-2-fluorobenzyl)-5-fluoro-1-(2-methoxyethyl)-1H-benzo[d]imidazole-6-carboxylic acid], the “Predicted Hepatic Clearance (Pred. Cl.)” value in series [1] was 6 mL/min/kg. Also, the EC50 in series [2] (setting [3]) worked out at 35.2 nM.

In the case of `COC[C@H]1C[C@H](n2c(Cc3cc(F)c(-c4cccc(OCc5ccc(C#N)cc5F)n4)cc3F)nc3ccc(C(=O)O)cc32)C1` [Example 731], the “Predicted Hepatic Clearance (Pred. Cl.)” value in series [1] is 10.3 mL/min/kg. The EC50 in series [2] (setting [3]) is 290 nM.

Turning to `COCC1(Cn2c(Cc3cc(F)c(-c4cccc(OCc5ccc(C#N)cc5F)n4)cc3F)nc3ccc(C(=O)O)cc32)CC1` [Example 638], the “Predicted Hepatic Clearance (Pred. Cl.)” value in series [1] is 1.83 mL/min/kg. In addition, the EC50 in series [2] (setting [3]) was 2.24 nM.

On to `N#Cc1ccc(COc2ncc(F)c(-c3ccc(Cc4nc5c(F)cc(C(=O)O)cc5n4C[C@@H]4CCO4)cc3)n2)c(F)c1` [Example 882], for which the “Predicted Hepatic Clearance (Pred. Cl.)” value in series [1] was 6.17 mL/min/kg. Further, the EC50 in series [2] (setting [3]) is 0.18 nM.

Turning to `N#Cc1ccc(COc2nc(-c3ccc(Cc4nc5c(F)cc(C(=O)O)cc5n4C[C@@H]4CCO4)cc3F)ncc2F)c(F)c1` [Example 666], in series [1], the “Predicted Hepatic Clearance (Pred. Cl.)” value was 3.33 mL/min/kg. Also, the concentration for a half-maximal effect (EC50) in series [2] (setting [3]) amounted to 0.51 nM.

As to `COc1cc(Cl)ccc1COc1nccc(-c2cc(F)c(Cc3nc4ccc(C(=O)O)cc4n3CC3(CF)CC3)cc2F)n1` [Example 414, 2-(4-(2-((4-chloro-2-methoxybenzyl)oxy)pyrimidin-4-yl)-2,5-difluorobenzyl)-1-((1-(fluoromethyl)cyclopropyl)methyl)-1H-benzo[d]imidazole-6-carboxylic acid], the “Predicted Hepatic Clearance (Pred. Cl.)” value in series [1] was 12 mL/min/kg. For the same compound, the EC50 in series [2] (setting [3]) worked out at 0.44 nM.

Take `N#Cc1ccc(COc2cccc(-c3cc(F)c(Cc4nc5ccc(C(=O)O)cc5n4CC4COC4)cc3F)n2)c(F)c1` [Example 307, 2-(4-(6-((4-cyano-2-fluorobenzyl)oxy)pyridin-2-yl)-2,5-difluorobenzyl)-1-(oxetan-3-ylmethyl)-1H-benzo[d]imidazole-6-carboxylic acid]: the “Predicted Hepatic Clearance (Pred. Cl.)” value in series [1] is 5.33 mL/min/kg. Besides, the EC50 in series [2] (setting [3]) is 7.96 nM.

As for `N#Cc1ccc(COc2cccc(-c3cc(F)c(Cc4nc5ccc(C(=O)O)cc5n4CCNc4ccccn4)cc3F)n2)c(F)c1` [Example 835], in series [1], the “Predicted Hepatic Clearance (Pred. Cl.)” value was 11.2 mL/min/kg. Besides, the half-maximal effective concentration (EC50) in series [2] (read-out: EC50) amounted to 515 nM.

Consider `COCCn1c(Cc2ccc(-c3cccc(OCc4cccc(C(C)C)c4F)n3)cc2F)nc2ccc(C(=O)O)cc21` [Example 158, 2-(2-fluoro-4-(6-((2-fluoro-3-isopropylbenzyl)oxy)pyridin-2-yl)benzyl)-1-(2-methoxyethyl)-1H-benzo[d]imidazole-6-carboxylic acid], for which the “Predicted Hepatic Clearance (Pred. Cl.)” value in series [1] was 3.83 mL/min/kg. Further, the half-maximal effective concentration (EC50) in series [2] (setting [3]) came out at 37.1 nM.

On to `N#Cc1ccc(COc2cccc(-c3ccc(Cc4nc5ccc(C(=O)O)cc5n4CC45CCC(CC4)O5)c(F)c3)n2)c(F)c1` [Example 231, 1-(7-oxabicyclo[2.2.1]heptan-1-ylmethyl)-2-(4-(6-((4-cyano-2-fluorobenzyl)oxy)pyridin-2-yl)-2-fluorobenzyl)-1H-benzo[d]imidazole-6-carboxylic acid], for which, in series [1], the “Predicted Hepatic Clearance (Pred. Cl.)” value was 8.17 mL/min/kg. In series [2] (setting [3]), the EC50 came out at 35.4 nM.

With `N#Cc1ccc(COc2nccc(-c3ccc(Cc4nc5c(F)cc(C(=O)O)cc5n4CC4(CF)CC4)cc3F)n2)c(F)c1` [Example 299, 2-(4-(2-((4-cyano-2-fluorobenzyl)oxy)pyrimidin-4-yl)-3-fluorobenzyl)-4-fluoro-1-((1-(fluoromethyl)cyclopropyl)methyl)-1H-benzo[d]imidazole-6-carboxylic acid], in series [1], the “Predicted Hepatic Clearance (Pred. Cl.)” value was 5.17 mL/min/kg. In series [2] (setting [3]), the EC50 was 0.4 nM.

As to `COCCn1c(Cc2cc(F)c(-c3ccnc(OCc4ccc(C(F)F)cc4F)n3)cc2F)nc2c(F)cc(C(=O)O)cc21` [Example 672], in series [1], the “Predicted Hepatic Clearance (Pred. Cl.)” value was 1.83 mL/min/kg. In addition, the half-maximal effective concentration (EC50) in series [2] (setting [3]) was 0.58 nM.

On to `N#Cc1ccc(COc2cccc(-c3ccc(Cc4nc5ccc(C(=O)O)cc5n4CC4(c5ccncc5)CC4)c(F)c3)n2)c(F)c1` [Example 275, 2-(4-(6-((4-cyano-2-fluorobenzyl)oxy)pyridin-2-yl)-2-fluorobenzyl)-1-((1-(pyridin-4-yl)cyclopropyl)methyl)-1H-benzo[d]imidazole-6-carboxylic acid], for which the “Predicted Hepatic Clearance (Pred. Cl.)” value in series [1] is 12.2 mL/min/kg. Further, the EC50 in series [2] (setting [3]) was 5.51 nM.

Consider `N#Cc1ccc(COc2cccc(-c3cc(F)c(Cc4nc5ccc(C(=O)O)cc5n4Cc4ccsn4)cc3F)n2)c(F)c1` [Example 580, 2-(4-(6-((4-cyano-2-fluorobenzyl)oxy)pyridin-2-yl)-2,5-difluorobenzyl)-1-(isothiazol-3-ylmethyl)-1H-benzo[d]imidazole-6-carboxylic acid], for which the “Predicted Hepatic Clearance (Pred. Cl.)” value in series [1] was 5.83 mL/min/kg. Besides, in series [2] (setting [3]), the EC50 is 1.94 nM.

For `CC(=O)N1CC[C@@H]1Cn1c(Cc2cc(F)c(-c3cccc(OCc4ccc(C#N)cc4F)n3)cc2F)nc2ccc(C(=O)O)cc21` [Example 925, (R)-1-((1-acetylazetidin-2-yl)methyl)-2-(4-(6-((4-cyano-2-fluorobenzyl)oxy)pyridin-2-yl)-2,5-difluorobenzyl)-1H-benzo[d]imidazole-6-carboxylic acid], in series [1], the “Predicted Hepatic Clearance (Pred. Cl.)” value was 5.83 mL/min/kg. For the same compound, in series [2] (read-out: EC50), the EC50 was 3.63 nM.

In the case of `COCCn1c(Cc2ccc(-c3cccc(OCc4ccc(C#N)cc4F)n3)cc2O)nc2ccc(C(=O)O)cc21` [Example 181, 2-(4-(6-((4-cyano-2-fluorobenzyl)oxy)pyridin-2-yl)-2-hydroxybenzyl)-1-(2-methoxyethyl)-1H-benzo[d]imidazole-6-carboxylic acid], the “Predicted Hepatic Clearance (Pred. Cl.)” value in series [1] is 2.83 mL/min/kg. In addition, the EC50 in series [2] (setting [3]) worked out at 15.5 nM.

As for `N#CCC1(Cn2c(Cc3ccc(-c4cccc(OCc5ccc(C#N)cc5F)n4)cc3C#N)nc3ccc(C(=O)O)cc32)CC1` [Example 388, 2-(2-cyano-4-(6-((4-cyano-2-fluorobenzyl)oxy)pyridin-2-yl)benzyl)-1-((1-(cyanomethyl)cyclopropyl)methyl)-1H-benzo[d]imidazole-6-carboxylic acid], the “Predicted Hepatic Clearance (Pred. Cl.)” value in series [1] was 5.17 mL/min/kg. Also, in series [2] (setting [3]), the concentration for a half-maximal effect (EC50) is 0.24 nM.

`COCCn1c(Cc2ccc(-c3cccc(OCc4ccc(C#N)cc4F)n3)cc2NC(=O)OC)nc2ccc(C(=O)O)cc21` [Example 383, 2-(4-(6-((4-cyano-2-fluorobenzyl)oxy)pyridin-2-yl)-2-((methoxycarbonyl)amino)benzyl)-1-(2-methoxyethyl)-1H-benzo[d]imidazole-6-carboxylic acid]: the “Predicted Hepatic Clearance (Pred. Cl.)” value in series [1] was 8.67 mL/min/kg. In series [2] (EC50 (nM)), the EC50 turned out to be 123 nM.

The record behind these values is US11702404B2, “GLP-1R modulating compounds” (priority 2019, dated 2023).
